Experimental data: PubChem BioAssay (NCI)
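Interpolation was linear, between the two tested concentrations surrounding the appropriate level; five concentrations were tested over 48 hours in 96-well plates. GI50 = concentration required for 50% inhibition of growth. TGI: concentration producing complete growth inhibition.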

Columns and labels:
Experiment in all cases: NCI anticancer screen, dose series, 48 h
A498 renal = test system: A498 renal
A549 NSCLC = test system: A549 NSCLC
ACHN renal = test system: ACHN renal
BT-549 breast = test system: BT-549 breast
CAKI-1 renal = test system: CAKI-1 renal
CCRF-CEM leukemia = test system: CCRF-CEM leukemia
COLO 205 colon = test system: COLO 205 colon
DU-145 prostate = test system: DU-145 prostate
EKVX NSCLC = test system: EKVX NSCLC
HCC-2998 colon = test system: HCC-2998 colon
HCT-116 colon = test system: HCT-116 colon
HCT-15 colon = test system: HCT-15 colon
HL-60(TB) leukemia = test system: HL-60(TB) leukemia
HOP-62 NSCLC = test system: HOP-62 NSCLC
HOP-92 NSCLC = test system: HOP-92 NSCLC
HS 578T breast = test system: HS 578T breast
HT29 colon = test system: HT29 colon
IGROV1 ovarian = test system: IGROV1 ovarian
K-562 leukemia = test system: K-562 leukemia
KM12 colon = test system: KM12 colon
LOX IMVI melanoma = test system: LOX IMVI melanoma
M14 melanoma = test system: M14 melanoma
MALME-3M melanoma = test system: MALME-3M melanoma
MCF7 breast = test system: MCF7 breast
MDA-MB-231 breast = test system: MDA-MB-231 breast
MDA-MB-435 = test system: MDA-MB-435
MOLT-4 leukemia = test system: MOLT-4 leukemia
NCI-H226 lung = test system: NCI-H226 lung

Question: Which results are given for COc1ccc(-n2nc(C(=O)c3ccccc3)c3nn4c(=O)cc(-c5ccccc5)nc4nc32)cc1?
Answer: GI50 (A498 renal): 66.2 µM; TGI (A498 renal): > 100 µM; GI50 (A549 NSCLC): 39.2 µM; TGI (A549 NSCLC): > 100 µM; GI50 (ACHN renal): 45.9 µM; TGI (ACHN renal): > 100 µM; GI50 (BT-549 breast): 55.1 µM; TGI (BT-549 breast): > 100 µM; GI50 (CAKI-1 renal): > 100 µM; TGI (CAKI-1 renal): > 100 µM; GI50 (CCRF-CEM leukemia): 28.9 µM; TGI (CCRF-CEM leukemia): > 100 µM; GI50 (COLO 205 colon): 29.1 µM; TGI (COLO 205 colon): > 100 µM; GI50 (DU-145 prostate): 49.2 µM; TGI (DU-145 prostate): > 100 µM; GI50 (EKVX NSCLC): 53.5 µM; TGI (EKVX NSCLC): > 100 µM; GI50 (HCC-2998 colon): 47.3 µM; TGI (HCC-2998 colon): 76.7 µM; GI50 (HCT-116 colon): > 100 µM; TGI (HCT-116 colon): > 100 µM; GI50 (HCT-15 colon): 43.4 µM; TGI (HCT-15 colon): > 100 µM; GI50 (HL-60(TB) leukemia): 29.6 µM; TGI (HL-60(TB) leukemia): > 100 µM; GI50 (HOP-62 NSCLC): 44.1 µM; TGI (HOP-62 NSCLC): > 100 µM; GI50 (HOP-92 NSCLC): 37.4 µM; TGI (HOP-92 NSCLC): > 100 µM; GI50 (HS 578T breast): 69.9 µM; TGI (HS 578T breast): > 100 µM; GI50 (HT29 colon): 32.2 µM; TGI (HT29 colon): > 100 µM; GI50 (IGROV1 ovarian): 25.9 µM; TGI (IGROV1 ovarian): > 100 µM; GI50 (K-562 leukemia): 40.5 µM; TGI (K-562 leukemia): > 100 µM; GI50 (KM12 colon): 46.5 µM; TGI (KM12 colon): > 100 µM; GI50 (LOX IMVI melanoma): 34.5 µM; TGI (LOX IMVI melanoma): > 100 µM; GI50 (M14 melanoma): 30.3 µM; TGI (M14 melanoma): > 100 µM; GI50 (MALME-3M melanoma): 34.5 µM; TGI (MALME-3M melanoma): > 100 µM; GI50 (MCF7 breast): 30.7 µM; TGI (MCF7 breast): > 100 µM; GI50 (MDA-MB-231 breast): 28.7 µM; TGI (MDA-MB-231 breast): > 100 µM; GI50 (MDA-MB-435): 51.9 µM; TGI (MDA-MB-435): > 100 µM; GI50 (MOLT-4 leukemia): 34.8 µM; TGI (MOLT-4 leukemia): > 100 µM; GI50 (NCI-H226 lung): 98.1 µM; TGI (NCI-H226 lung): > 100 µM
